Converted amounts (≈) assume the structure as drawn. Where two headings read alike, the source gives them in different places.
What was measured:
P. aeruginosa = experiment: Checkerboard assay (antibiotic + adjuvant combination MIC); assay type: cell-based, Pseudomonas aeruginosa; details: for MIC of Novobiocin + adjuvant (7.1 μM): PMBN or 1 at 7.1 μM
Protocol: (§1) Antimicrobial Susceptibility Assay. The in vitro antimicrobial activity of all compounds/antibiotics against a panel of bacteria was evaluated by microbroth dilution method in accordance with the Clinical and Laboratory Standards Institute (CLSI) guidelines (using ATCC strains as quality control strains) (54). Overnight grown bacterial cultures were diluted in saline to achieve a 0.5 McFarland turbidity, followed by 1:50 dilution in Mueller-Hinton broth (MHB) for inoculation to a final concentration of approximately 5×10^5 CFU/mL. […] The lowest concentration that prevented the visible growth of bacteria was defined as the MIC for each antimicrobial agent. The broth with or without bacterial cells was used as positive or negative control, respectively.
(§2) Checkerboard Assay. Combination studies with different antibiotics were performed in 96-well plates as previously described (19). Briefly, the antibiotic of interest was serially diluted in MHB along the abscissa while the adjuvant (tobramycin homodimer) was serially diluted in MHB along the ordinate. This creates a 10×7 matrices wherein each well consists of a combination of different antibiotic and adjuvant concentrations. Overnight grown bacterial cultures were diluted in saline to achieve a 0.5 McFarland turbidity, followed by 1:50 dilution in Mueller-Hinton broth (MHB) for inoculation to a final concentration of approximately 5×10^5 CFU/mL. […] MIC was recorded as wells with the lowest concentration of drugs with no bacterial growth. The fractional inhibitory concentration (FIC) for each antibiotic was calculated by dividing the MIC of the antibiotic in the presence of adjuvant by the MIC of the antibiotic alone. Similarly, the FIC of adjuvant was calculated by dividing the MIC of the adjuvant in the presence of antibiotic by the MIC of the adjuvant alone. FIC index is the sum of both FICs. FIC indices of ≤0.5 were deemed synergistic; >0.5-4, no interaction; and >4, antagonistic.

[1] = tested on: P. aeruginosa PAO1 and efflux deficient mutants, MDR/XDR isolates; experiment: microbe, parasite or virus in culture; assay type: cell-based, Pseudomonas aeruginosa
Protocol: Antimicrobial Susceptibility Assay. The in vitro antimicrobial activity of all compounds/antibiotics against a panel of bacteria was evaluated by microbroth dilution method in accordance with the Clinical and Laboratory Standards Institute (CLSI) guidelines (using ATCC strains as quality control strains) (54). […] The broth with or without bacterial cells was used as positive or negative control, respectively.

A. baumannii = experiment: Checkerboard assay (antibiotic + adjuvant combination MIC); assay type: cell-based, Acinetobacter baumannii
Protocol: as §1, §2

E. coli = experiment: as above; assay type: cell-based, Escherichia coli; details: PMBN or 1 at 7.1 μM
Protocol: as §1, §2

E. cloacae = experiment: as above; assay type: cell-based, Enterobacter cloacae; details: EC 118568; PMBN or 1 at 7.1 μM
Protocol: as §1, §2

K. pneumoniae = experiment: as above; assay type: cell-based, Klebsiella pneumoniae; details: KP 113254; PMBN or 1 at 7.1 μM
Protocol: as §1, §2

[2] = P. aeruginosa PAO1, compound at 8 μM
[3] = PA 262-101856, compound at 8 μM
[4] = PA 264-104354, compound at 8 μM
[5] = PA O200 (efflux-deficient), compound at 8 μM
[6] = PA O750 (efflux-deficient), compound at 8 μM

NC[C@H]1O[C@H](O[C@H]2[C@H](OCCCCc3cn(CCCCO[C@@H]4[C@@H](O)[C@H](N)C[C@H](N)[C@H]4O[C@H]4O[C@H](CN)[C@@H](O)C[C@H]4N)nn3)[C@@H](O)[C@H](N)C[C@@H]2N)[C@H](N)C[C@@H]1O [Compound 26, Nebramine Homodimer]
MIC of CAZ in the presence of compound (P. aeruginosa): 128 µg/mL
MIC of Aztreonam + compound (P. aeruginosa; [2]): 1 µg/mL
MIC of Ceftazidime + compound (P. aeruginosa; [2]): 0.5 µg/mL
MIC of Imipenem + compound (P. aeruginosa; [2]): 2 µg/mL
MIC of Piperacillin + compound (P. aeruginosa; [2]): 8 µg/mL
MIC of ATM in the presence of compound (P. aeruginosa; PA 259-96918, compound at 8 μM): 8 µg/mL
MIC of IPM in the presence of compound (P. aeruginosa; PA 259-96918, compound at 8 μM): 64 µg/mL
MIC of ATM in the presence of compound (P. aeruginosa; PA 260-97103, compound at 8 μM): 16 µg/mL
MIC of CAZ in the presence of compound (P. aeruginosa; PA 260-97103, compound at 8 μM): 16 µg/mL
MIC of IPM in the presence of compound (P. aeruginosa; PA 260-97103, compound at 8 μM): 16 µg/mL
MIC of ATM in the presence of compound (P. aeruginosa; [3]): 16 µg/mL
MIC of CAZ in the presence of compound (P. aeruginosa; [3]): 16 µg/mL
MIC of IPM in the presence of compound (P. aeruginosa; [3]): 4 µg/mL
MIC of ATM in the presence of compound (P. aeruginosa; [4]): 8 µg/mL
MIC of CAZ in the presence of compound (P. aeruginosa; [4]): 32 µg/mL
MIC of IPM in the presence of compound (P. aeruginosa; [4]): 8 µg/mL
MIC of ATM in the presence of compound (P. aeruginosa; PA 86052, compound at 8 μM): 32 µg/mL
MIC of CAZ in the presence of compound (P. aeruginosa; PA 86052, compound at 8 μM): 64 µg/mL
MIC of IPM in the presence of compound (P. aeruginosa; PA 86052, compound at 8 μM): 16 µg/mL
MIC of ATM in the presence of compound (P. aeruginosa; PA 88949, compound at 8 μM): 16 µg/mL
MIC of CAZ in the presence of compound (P. aeruginosa; PA 88949, compound at 8 μM): 64 µg/mL
MIC of IPM in the presence of compound (P. aeruginosa; PA 88949, compound at 8 μM): 32 µg/mL
MIC of ATM in the presence of compound (P. aeruginosa; PA 91433, compound at 8 μM): 2 µg/mL
MIC of CAZ in the presence of compound (P. aeruginosa; PA 91433, compound at 8 μM): 0.5 µg/mL
MIC of IPM in the presence of compound (P. aeruginosa; PA 91433, compound at 8 μM): 8 µg/mL
MIC of ATM in the presence of compound (P. aeruginosa; PA 100036, compound at 8 μM): 4 µg/mL
MIC of CAZ in the presence of compound (P. aeruginosa; PA 100036, compound at 8 μM): 4 µg/mL
MIC of IPM in the presence of compound (P. aeruginosa; PA 100036, compound at 8 μM): 4 µg/mL
MIC of ATM in the presence of compound (P. aeruginosa; PA 101243, compound at 8 μM): 8 µg/mL
MIC of CAZ in the presence of compound (P. aeruginosa; PA 101243, compound at 8 μM): 32 µg/mL
MIC of IPM in the presence of compound (P. aeruginosa; PA 101243, compound at 8 μM): 8 µg/mL
MIC of ATM in the presence of compound (P. aeruginosa; PA 101885, compound at 8 μM): 4 µg/mL
MIC of CAZ in the presence of compound (P. aeruginosa; PA 101885, compound at 8 μM): 1 µg/mL
MIC of IPM in the presence of compound (P. aeruginosa; PA 101885, compound at 8 μM): 4 µg/mL
MIC of ATM in the presence of compound (P. aeruginosa; PA 107092, compound at 8 μM): 32 µg/mL
MIC of IPM in the presence of compound (P. aeruginosa; PA 107092, compound at 8 μM): 32 µg/mL
MIC of ATM in the presence of compound (P. aeruginosa; PA 108590, compound at 8 μM): 16 µg/mL
MIC of CAZ in the presence of compound (P. aeruginosa; PA 108590, compound at 8 μM): 32 µg/mL
MIC of IPM in the presence of compound (P. aeruginosa; PA 108590, compound at 8 μM): 8 µg/mL
MIC of ATM in the presence of compound (P. aeruginosa; PA 109084, compound at 8 μM): 16 µg/mL
MIC of CAZ in the presence of compound (P. aeruginosa; PA 109084, compound at 8 μM): 32 µg/mL
MIC of IPM in the presence of compound (P. aeruginosa; PA 109084, compound at 8 μM): 16 µg/mL
MIC of ATM in the presence of compound (P. aeruginosa; PA 114228, compound at 8 μM): 16 µg/mL
MIC of CAZ in the presence of compound (P. aeruginosa; PA 114228, compound at 8 μM): 1 µg/mL
MIC of IPM in the presence of compound (P. aeruginosa; PA 114228, compound at 8 μM): 4 µg/mL
MIC of ATM in the presence of compound (P. aeruginosa; [5]): 0.06 µg/mL
MIC of CAZ in the presence of compound (P. aeruginosa; [5]): 0.25 µg/mL
MIC of IPM in the presence of compound (P. aeruginosa; [5]): 1 µg/mL
MIC of ATM in the presence of compound (P. aeruginosa; [6]): 0.25 µg/mL
MIC of CAZ in the presence of compound (P. aeruginosa; [6]): 0.13 µg/mL
MIC of IPM in the presence of compound (P. aeruginosa; [6]): 2 µg/mL
MIC of ATM in the presence of compound (P. aeruginosa; PAO1, compound at 8 μM): 1 µg/mL
MIC of CAZ in the presence of compound (P. aeruginosa; PAO1, compound at 8 μM): 0.5 µg/mL
MIC of IPM in the presence of compound (P. aeruginosa; PAO1, compound at 8 μM): 2 µg/mL
MIC ([1]; PAO1 (wild-type)): >128 µg/mL
MIC ([1]; PAO200 (first column so headed)): >128 µg/mL
MIC ([1]; PAO200 (second column so headed)): 128 µg/mL (≈ 162 µM)

polymyxin B nonapeptide [PMBN, reference compound]
MIC of Novobiocin + adjuvant (7.1 μM) (P. aeruginosa; PA 91433): 4 µg/mL
MIC of Novobiocin + adjuvant (7.1 μM) (P. aeruginosa; PA 101243): 8 µg/mL
MIC of Novobiocin + adjuvant (7.1 μM) (P. aeruginosa; PA 114228): 128 µg/mL
MIC of Novobiocin + adjuvant (7.1 μM) (P. aeruginosa; PAO1): 4 µg/mL
MIC of Novobiocin + adjuvant (7.1 μM) (A. baumannii; AB 92247, PMBN or 1 at 7.1 μM): 1 µg/mL
potentiation of novobiocin (A. baumannii; colistin-resistant mutant B of A. baumannii ATCC 17978): did not potentiate
MIC of Novobiocin + adjuvant (7.1 μM) (E. coli; E. coli 94393): 4 µg/mL
MIC of Novobiocin + adjuvant (7.1 μM) (E. coli; E. coli 94474): 32 µg/mL
MIC of Novobiocin + adjuvant (7.1 μM) (E. cloacae): 512 µg/mL
MIC of Novobiocin + adjuvant (7.1 μM) (K. pneumoniae): 64 µg/mL

Source: patent publication US20220249441A1, “Homodimeric Tobramycin Adjuvant Repurposes Novobiocin as an Effective Antibacterial Agent Against Gram-Negative Bacteria” (priority 2019, published 2022)
